What follows are molecules tested against T1, human MAGL (His-hMAGL) (Homo sapiens, UniProt Q99685) (assay: Measurement of MAGL inhibitory activity by mass spectrometry). Conditions: MAGL inhibitory rate, test compound 10 μM, His-hMAGL, substrate 2-arachidonylglycerol, RapidFire-mass spectrometry.
T1 construct: made in house; host or cells: Escherichia coli BL21(DE3)
T1 sequence (Q99685 1-303): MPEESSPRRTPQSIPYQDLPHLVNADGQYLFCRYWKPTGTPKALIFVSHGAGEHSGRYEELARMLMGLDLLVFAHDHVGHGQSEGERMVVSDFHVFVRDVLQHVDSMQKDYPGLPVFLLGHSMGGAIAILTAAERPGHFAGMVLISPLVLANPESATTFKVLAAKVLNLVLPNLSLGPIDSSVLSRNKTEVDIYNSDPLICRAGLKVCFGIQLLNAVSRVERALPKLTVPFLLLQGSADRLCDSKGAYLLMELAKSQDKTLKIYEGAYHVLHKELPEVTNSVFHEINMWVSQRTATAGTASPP
Format: biochemical
Procedure, shortened: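 His-tagged human MAGL was reacted with 150 μM 2-arachidonylglycerol substrate (stock, added by 5 μL) for 10 min at room temperature, then stopped with formic acid. Arachidonic acid product was quantified by RapidFire–triple-quadrupole MS in negative SRM mode, corrected by arachidonic acid-d8, and converted to percent inhibition.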
Work on `O=C(c1cscn1)N1CCN([C@@H]2CC(=O)N(c3ccc4c(ccn4-c4ccc(C(F)(F)F)cn4)c3)C2)CC1` [Example 419, (4R)-4-(4-(1,3-Thiazol-4-ylcarbonyl)piperazin-1-yl)-1-(1-(5-(trifluoromethyl)pyridin-2-yl)-1H-indol-5-yl)pyrrolidin-2-one] yielded an inhibition at 10 µM of 96%. In the case of `O=C(c1cscn1)N1CCN([C@@H]2CC(=O)N(c3ccc4c(c3)CCN4c3ccc(C(F)(F)F)cn3)C2)CC1` [Example 420, (4R)-4-(4-(1,3-Thiazol-4-ylcarbonyl)piperazin-1-yl)-1-(1-(5-(trifluoromethyl)pyridin-2-yl)-2,3-dihydro-1H-indol-5-yl)pyrrolidin-2-one], the inhibition at 10 µM is reported as 89%. In the case of `O=C(c1cscn1)N1CCN([C@@H]2CC(=O)N(c3ccc4c(ccn4-c4cccc(C(F)(F)F)c4)c3)C2)CC1` [Example 421, (4R)-4-(4-(1,3-thiazol-4-ylcarbonyl)piperazin-1-yl)-1-(1-(3-(trifluoromethyl)phenyl)-1H-indol-5-yl)pyrrolidin-2-one], the inhibition at 10 µM is reported as 100%. In the case of `O=C(c1cscn1)N1CCN([C@@H]2CC(=O)N(c3ccc4c(ccn4-c4cccc(F)c4)c3)C2)CC1` [Example 422, (4R)-1-(1-(3-fluorophenyl)-1H-indol-5-yl)-4-(4-(1,3-thiazol-4-ylcarbonyl)piperazin-1-yl)pyrrolidin-2-one], the inhibition at 10 µM is reported as 99%. `O=C(c1cscn1)N1CCN([C@@H]2CC(=O)N(c3ccc4c(ccn4-c4ccc(Cl)cc4)c3)C2)CC1` [Example 423, (4R)-1-(1-(4-Chlorophenyl)-1H-indol-5-yl)-4-(4-(1,3-thiazol-4-ylcarbonyl)piperazin-1-yl)pyrrolidin-2-one] was tested, and the inhibition at 10 µM was 98%. In the case of `O=C(c1cscn1)N1CCN([C@@H]2CC(=O)N(c3ccc4c(ccn4-c4cc(C(F)(F)F)ccn4)c3)C2)CC1` [Example 425, (4R)-4-(4-(1,3-Thiazol-4-ylcarbonyl)piperazin-1-yl)-1-(1-(4-(trifluoromethyl)pyridin-2-yl)-1H-indol-5-yl)pyrrolidin-2-one], the inhibition at 10 µM is reported as 100%. In the case of `Cc1ncccc1-c1cc(F)cc(N2C[C@H](N3CCN(c4ncccn4)CC3)CC2=O)c1` [Example 426, (4R)-1-(3-Fluoro-5-(2-methylpyridin-3-yl)phenyl)-4-(4-(pyrimidin-2-yl)piperazin-1-yl)pyrrolidin-2-one], the inhibition at 10 µM is reported as 99%. In the case of `O=C(c1cscn1)N1CCN([C@@H]2CC(=O)N(c3ccc4c(ccn4-c4cccc(Cl)c4)c3)C2)CC1` [Example 428, (4R)-1-(1-(3-chlorophenyl)-1H-indol-5-yl)-4-(4-(1,3-thiazol-4-ylcarbonyl)piperazin-1-yl)pyrrolidin-2-one], the inhibition at 10 µM is reported as 100%. Molecule `O=C(c1cscn1)N1CCN([C@@H]2CC(=O)N(c3ccc4c(c3)CCN4c3ccc(F)cc3)C2)CC1` [Example 429, (4R)-1-(1-(4-fluorophenyl)-2,3-dihydro-1H-indol-5-yl)-4-(4-(1,3-thiazol-4-ylcarbonyl)piperazin-1-yl)pyrrolidin-2-one] has an inhibition at 10 µM of 100%. For `O=C(c1cscn1)N1CCN([C@@H]2CC(=O)N(c3ccc4c(ccn4-c4ncc(C(F)(F)F)cn4)c3)C2)CC1` [Example 432, (4R)-4-(4-(1,3-Thiazol-4-ylcarbonyl)piperazin-1-yl)-1-(1-(5-(trifluoromethyl)pyrimidin-2-yl)-1H-indol-5-yl)pyrrolidin-2-one], the inhibition at 10 µM was 100%. For `O=C1CC(N2CCN(c3ncccn3)CC2)CN1c1ccc2c(ccn2-c2ncc(C(F)(F)F)cn2)c1` (centres unmarked) [Example 433, 4-(4-(Pyrimidin-2-yl)piperazin-1-yl)-1-(1-(5-(trifluoromethyl)pyrimidin-2-yl)-1H-indol-5-yl)pyrrolidin-2-one], the inhibition at 10 µM was 83%. For `CC1C(N2CCN(C(=O)c3nccs3)CC2)CC(=O)N1c1ccc2c(ccn2-c2ncc(C(F)(F)F)cn2)c1` (centres unmarked) [Example 434, 5-methyl-4-(4-(1,3-thiazol-2-ylcarbonyl)piperazin-1-yl)-1-(1-(5-(trifluoromethyl)pyrimidin-2-yl)-1H-indol-5-yl)pyrrolidin-2-one], the inhibition at 10 µM was 100%.

Same assay, conditions: MAGL inhibitory rate, test compound 10 μM, His-hMAGL, substrate 2-arachidonylglycerol, RapidFire-mass spectrometry; 10 µM
For `O=C1CC(N2CCN(c3ncccn3)CC2)CN1c1ccc2c(c1)CCN2c1ncc(C(F)(F)F)cn1` (stereo not drawn) [Example 430, 4-(4-(Pyrimidin-2-yl)piperazin-1-yl)-1-(1-(5-(trifluoromethyl)pyrimidin-2-yl)-2,3-dihydro-1H-indol-5-yl)pyrrolidin-2-one (optical isomer)], the “% inhibition at 10 μM” value was 85%.

The molecules below were run against T1, human MAGL (His-hMAGL) (assay: Measurement of MAGL inhibitory activity by absorbance). Conditions: 10 μM test compound; substrate p-nitrophenyl acetate, absorbance at 405 nm.
Format: biochemical
From the text: (1) Cloning of Human MGLL Encoding MAGL Protein and Construction of Expression Plasmid
Human MGLL cDNA was obtained by PCR using human ORF Clone (DNAForm; Clone ID: 100004585) as a template. For PCR, two kinds of primers: […]
The obtained PCR product was digested with Bam HI and Not I (Takara Bio Inc.), inserted into the Bam HI/Not I site of pET21HH(V) (pET21a (Novagen) inserted with His x6 and TEV Protease recognition sequence) by using Ligation High (Toyobo Co., Ltd.), and introduced into ECOS™ JM109 (Nippon Gene Co., Ltd.), whereby expression plasmid pET21HH(V)/His-hMGLLv2 for Escherichia coli was constructed. (2) Preparation of Recombinant Polyhistidine Tagged Human MAGL Protein
Recombinant His-hMAGL protein was prepared by transforming ECOS™ Competent E. coli BL21(DE3) (Nippon Gene Co., Ltd.) with the pET21HH(V)/His-hMGLLv2 plasmid prepared above. Escherichia coli obtained by transformation was inoculated to 10 mL of LB medium (1% peptone, 0.5% yeast extract, 0.5% sodium chloride, 0.01% ampicillin), and cultured at 30° C. for 16 hr. […] When the turbidity of the culture medium reached about 500 Klett unit, the culture temperature was lowered to 16° C., isopropyl-β-D-thiogalactopyranoside (IPTG) was added to a final concentration of 1 mM, and the mixture was further cultured for 19 hr. After the completion of culture, the culture medium was centrifuged (4° C., 6,000 rpm, 10 min) to give His-hMAGL expression Escherichia coli. Then, His-hMAGL expression Escherichia coli was suspended in 50 mM Tris-HCl (pH 8.0, 100 ml) containing 1% Triton X-100, 20 mM imidazole, 3 mM DTT, 5 U/mL Benzonase (Merck) and 150 mM NaCl, sufficiently cooled, and subjected to sonication at […]=60%, 15 sec/ON, 30 sec/OFF for 3 min using ¾″ solid type crushed horn of BRANSON Digital Sonifier 450 (Central Scientific Commerce, Inc.). Furthermore, the homogenate was centrifuged (4° C., 15,000 rpm, 15 min) and the supernatant was obtained. As the purification apparatus, AKTA explorer 10s (GE Healthcare Japan Corporation) was used at 4° C. To the obtained supernatant was added 5M NaCl to the final salt concentration of 0.3 M, and the mixture was flown through and adsorbed to 5 mL of Ni-NTA Superflow Cartridges (QIAGEN) equilibrated in advance with buffer A (50 mM Tris-HCl (pH 8.0) containing 0.05% TritonX-100, 1 mM DTT, 300 mM NaCl). The column was sufficiently washed with buffer A containing 20 mM imidazole and His-hMAGL was eluted with buffer A containing imidazole at a final concentration of 250 mM. The eluate was further subjected to gel filtration using HiLoad 26/600 Superdex 200 pg (GE Healthcare Japan Corporation) equilibrated with 50 mM Tris-HCl pH 8.0 containing 10% glycerol, 0.05% TritonX-100, 1 mM DTT, 150 mM NaCl. The eluted fraction was concentrated by Amicon Ultra-15 10K (Merck Millipore) to give purified His-hMAGL protein. The protein concentration was measured by BCA Protein Assay Kit (Thermo Fisher Scientific) using BSA as the standard.
(3) Measurement of MAGL Inhibitory Activity
His-hMAGL obtained above was diluted with enzyme reaction buffer (10 mM Tris-HCl, pH 7.5, 1 mM EDTA, 0.1 (w/v) % Triton X-100) to a concentration of 60 ng/mL. […] Thereafter, to each well was added 750 μM p-nitrophenyl acetate (Wako Pure Chemical Industries, Ltd.) by 5 μL, and the absorbance at 405 nm was measured every 2 minutes up to 10 minutes by EnVision (PerkinElmer). The amount of change was obtained by subtracting the absorbance measured immediately after the start of the reaction from the absorbance measured 10 min after the start of the reaction.
MAGL inhibitory rate (%) was calculated according to the following calculation formula. (1−(absorbance change amount of test compound addition group−absorbance change amount of enzyme addition-free group)[…](absorbance change amount of test compound addition-free group−absorbance change amount of enzyme addition-free group))×100
`O=C(c1cscn1)N1CCN(C2CC(=O)N(c3ccc(Oc4ccccc4)cc3)C2)CC1` (centres unmarked) [Example 6, 1-(4-phenoxyphenyl)-4-(4-(1,3-thiazol-4-ylcarbonyl)piperazin-1-yl)pyrrolidin-2-one] gave an inhibition at 10 µM of 93%. `N#Cc1cccnc1N1CCN(C2CC(=O)N(c3ccc(Oc4ccccc4)cc3)C2)CC1` (centres unmarked) [Example 7, 2-(4-(5-Oxo-1-(4-phenoxyphenyl)pyrrolidin-3-yl)piperazin-1-yl)nicotinonitrile] gave an inhibition at 10 µM of 87%. `O=C(c1ccc(Cl)o1)N1CCN(C2CC(=O)N(c3ccc(Oc4ccccc4)cc3)C2)CC1` (centres unmarked) [Example 8, 4-(4-(5-chloro-2-furoyl)piperazin-1-yl)-1-(4-phenoxyphenyl)pyrrolidin-2-one] was tested, and the inhibition at 10 µM was 93%. `O=C(c1nccs1)N1CCN(C2CC(=O)N(c3ccc(Oc4ccc(F)c(F)c4)cc3)C2)CC1` (centres unmarked) [Example 12, 1-(4-(3,4-difluorophenoxy)phenyl)-4-(4-(1,3-thiazol-2-ylcarbonyl)piperazin-1-yl)pyrrolidin-2-one] was tested, and the inhibition at 10 µM was 98%. `COc1cc(Oc2ccccc2)ccc1N1CC(N2CCN(C(=O)c3nccs3)CC2)CC1=O` (centres unmarked) [Example 13, 1-(2-Methoxy-4-phenoxyphenyl)-4-(4-(1,3-thiazol-2-ylcarbonyl)piperazin-1-yl)pyrrolidin-2-one] gave an inhibition at 10 µM of 98%. Molecule `O=C(c1nccs1)N1CCN(C2CC(=O)N(c3ccc4c(ccn4-c4ccc(F)cc4)c3)C2)CC1` (centres unmarked) [Example 14, 1-(1-(4-Fluorophenyl)-1H-indol-5-yl)-4-(4-(1,3-thiazol-2-ylcarbonyl)piperazin-1-yl)pyrrolidin-2-one] has an inhibition at 10 µM of 98%. Molecule `O=C(c1nccs1)N1CCN(C2CC(=O)N(c3ccc(Oc4ccccc4)cn3)C2)CC1` (centres unmarked) [Example 18, 1-(5-phenoxypyridin-2-yl)-4-(4-(1,3-thiazol-2-ylcarbonyl)piperazin-1-yl)pyrrolidin-2-one] has an inhibition at 10 µM of 96%.
